Laboratory results published in patent US10329289B2, “6,7-dihydro-5H-pyrrolo[3,4-B]pyridin-5-one allosteric modulators of the M4 muscarinic acetylcholine receptor” (Merck Sharp & Dohme Corp., priority 2015, dated 2019).

The molecules below were run against T1, human M4 muscarinic acetylcholine receptor (Homo sapiens, UniProt P08173) (assay: human FLIPR-based M4 PAM assay (Ca2+ mobilization, CHO-K1 cells with human M4 receptor and Gαqi5)). Conditions: acetylcholine at 20% of maximum response, read-out: M4 PAM IP.
T1 construct: expressed in transfected cells; host or cells: CHO-K1
T1 sequence (P08173 1-479): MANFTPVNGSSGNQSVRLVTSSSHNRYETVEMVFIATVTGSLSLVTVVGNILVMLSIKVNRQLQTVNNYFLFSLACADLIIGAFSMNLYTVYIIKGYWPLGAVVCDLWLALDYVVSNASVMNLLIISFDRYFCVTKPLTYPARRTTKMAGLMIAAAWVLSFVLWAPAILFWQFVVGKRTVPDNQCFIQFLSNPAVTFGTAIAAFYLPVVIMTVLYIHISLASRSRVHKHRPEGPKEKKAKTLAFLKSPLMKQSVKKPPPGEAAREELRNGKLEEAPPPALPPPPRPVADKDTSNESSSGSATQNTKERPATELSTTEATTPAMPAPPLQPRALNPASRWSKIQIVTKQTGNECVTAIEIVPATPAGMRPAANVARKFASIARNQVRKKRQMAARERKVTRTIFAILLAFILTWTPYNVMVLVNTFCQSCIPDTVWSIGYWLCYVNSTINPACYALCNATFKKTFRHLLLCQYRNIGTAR
Format: cell-based
Outline: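 CHO-K1 cells stably expressing human M4 and chimeric Gαqi5 were dye-loaded ~1 h at 37 °C and read for Ca2+ fluorescence. Compound followed by acetylcholine at an EC20 (sometimes an EC70 third addition); inflection point from a 4-parameter logistic fit.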

Which EC50 does the source give for `Cc1cc2c(nc1N1CC[C@@H](Oc3ccc4c(c3)COC4)[C@H](F)C1)[C@@H](CO)N(C)C2=O` [Example 280A, (S)-2-((3R,4R)-4-((1,3-dihydro-2-benzofuran-5-yl)oxy)-3-fluoropiperidin-1-yl)-7-(hydroxymethyl)-3,6-dimethyl-6,7-dihydro-5H-pyrrolo[3,4-b]pyridin-5-one] here?
Its EC50 is 14 nM.

Which EC50 does the source give for `Cc1cc2c(nc1N1CCC(Oc3ccc4c(c3)COC4)CC1)[C@@H](CO)N(C)C2=O` [Example 281, (S)-2-(4-((1,3-dihydro-2-benzofuran-5-yl)oxy)piperidin-1-yl)-7-(hydroxymethyl)-3,6-dimethyl-6,7-dihydro-5H-pyrrolo[3,4-b]pyridin-5-one] here?
The EC50 was 23 nM.

`COc1ccc(O[C@@H]2CCN(c3nc4c(cc3C)C(=O)N(C)[C@H]4CO)C[C@H]2F)cn1` [Example 281A, (R)-2-((3R,4R)-3-fluoro-4-((6-methoxypyridin-3-yl)oxy)piperidin-1-yl)-7-(hydroxymethyl)-3,6-dimethyl-6,7-dihydro-5H-pyrrolo[3,4-b]pyridin-5-one] was tested. Which EC50 did it give?
Its EC50 is 8060 nM.

How did the EC50 turn out when `Cc1cc2c(nc1N1CCC(Oc3ccc4c(c3)COC4)CC1)[C@H](CO)N(C)C2=O` [Example 282, (R)-2-(4-((1,3-dihydro-2-benzofuran-5-yl)oxy)piperidin-1-yl)-7-(hydroxymethyl)-3,6-dimethyl-6,7-dihydro-5H-pyrrolo[3,4-b]pyridin-5-one] was run?
Its EC50 is 623 nM.

With `COc1ccc(O[C@@H]2CCN(c3nc4c(cc3C)C(=O)N(C)[C@@H]4CO)C[C@H]2F)cn1` [Example 282A, (S)-2-((3R,4R)-3-fluoro-4-((6-methoxypyridin-3-yl)oxy)piperidin-1-yl)-7-(hydroxymethyl)-3,6-dimethyl-6,7-dihydro-5H-pyrrolo[3,4-b]pyridin-5-one] as the molecule, how does the EC50 read?
The EC50 was 38 nM.

For `Cc1cc2c(nc1N1CC[C@@H](Oc3ccc4c(cnn4C)c3)[C@@H](F)C1)[C@@H](CO)N(C)C2=O` [Example 283, (S)-2-((3S,4R)-3-fluoro-4-((1-methyl-1H-indazol-5-yl)oxy)piperidin-1-yl)-7-(hydroxymethyl)-3,6-dimethyl-6,7-dihydro-5H-pyrrolo[3,4-b]pyridin-5-one], which EC50 is on record?
Its EC50 is 44 nM.

For `Cc1cc2c(nc1N1CC[C@@H](Oc3ccc4c(cnn4C)c3)[C@@H](F)C1)[C@H](CO)N(C)C2=O` [Example 284, (R)-2-((3S,4R)-3-fluoro-4-((1-methyl-1H-indazol-5-yl)oxy)piperidin-1-yl)-7-(hydroxymethyl)-3,6-dimethyl-6,7-dihydro-5H-pyrrolo[3,4-b]pyridin-5-one], which EC50 is on record?
The EC50 was 4330 nM.

Which EC50 does the source give for `CCOc1ccc(OC2CCN(c3nc4c(cc3C)C(=O)N(C)[C@H]4CO)CC2)cn1` [Example 285, (R)-2-(4-((6-ethoxypyridin-3-yl)oxy)piperidin-1-yl)-7-(hydroxymethyl)-3,6-dimethyl-6,7-dihydro-5H-pyrrolo[3,4-b]pyridin-5-one] here?
Its EC50 is 8620 nM.

For `CCOc1ccc(OC2CCN(c3nc4c(cc3C)C(=O)N(C)[C@@H]4CO)CC2)cn1` [Example 286, (S)-2-(4-((6-ethoxypyridin-3-yl)oxy)piperidin-1-yl)-7-(hydroxymethyl)-3,6-dimethyl-6,7-dihydro-5H-pyrrolo[3,4-b]pyridin-5-one], which EC50 is on record?
The EC50 was 38 nM.

`COc1ccc(OC2CCN(c3nc4c(cc3C)C(=O)NC4(C)C)CC2)cn1` [Example 288, 2-(4-((6-Methoxypyridin-3-yl)ox)piperidin-1-yl)-3,7,7-trimethyl-6,7-dihydro-5H-pyrrolo[3,4-b]pyridin-5-one] was tested. Which EC50 did it give?
Its EC50 is 1790 nM.

For `C=C1NC(=O)c2cc(C)c(N3CCC(Oc4ccc(OC)nc4)CC3)nc21` [Example 289, 2-(4-((6-Methoxypyridin-3-yl)oxy)piperidin-1-yl)-3-methyl-7-methylene-6,7-dihydro-5H-pyrrolo[3,4-b]pyridin-5-one], which EC50 is on record?
Its EC50 is 156 nM.

Which EC50 does the source give for `Cc1cc2c(nc1N1CCC(Oc3ccc4c(c3)CN(C)C4)CC1)CNC2=O` [Example 290, 3-Methyl-2-(4-((2-methylisoindolin-5-yl)oxy)piperidin-1-yl)-6,7-dihydro-5H-pyrrolo[3,4-b]pyridin-5-one] here?
The EC50 was 353 nM.

How did the EC50 turn out when `Cc1cc2c(nc1N1CCC(Oc3ccc4c(c3)CCCN4C)CC1)CNC2=O` [Example 291, 3-methyl-2-(4-((1-methyl-1,2,3,4-tetrahydroquinolin-6-yl)oxy)piperidin-1-yl)-6,7-dihydro-5H-pyrrolo[3,4-b]pyridin-5-one] was run?
The EC50 was 204 nM.

For `Cc1cc2c(nc1N1CCC(Oc3ccc4c(c3)CN(C)CC4)CC1)CNC2=O` [Example 292, 3-methyl-2-(4-((2-methyl-1,2,3,4-tetrahydroisoquinolin-7-yl)oxy)piperidin-1-yl)-6,7-dihydro-5H-pyrrolo[3,4-b]pyridin-5-one], which EC50 is on record?
Its EC50 is 174 nM.

How did the EC50 turn out when `Cc1cc2c(nc1N1CCC(Oc3ccc4c(c3)OCCN4C)CC1)CNC2=O` [Example 293, 3-methyl-2-(4-((4-methyl-3,4-dihydro-2H-benzo[b][1,4]oxazin-7-yl)oxy)piperidin-1-yl)-6,7-dihydro-5H-pyrrolo[3,4-b]pyridin-5-one] was run?
The EC50 was 104 nM.

Which EC50 does the source give for `CC(=O)N1Cc2ccc(OC3CCN(c4nc5c(cc4C)C(=O)NC5)CC3)cc2C1` [Example 294, 2-(4-((2-Acetylisoindolin-5-yl)oxy)piperidin-1-yl)-3-methyl-6,7-dihydro-5H-pyrrolo[3,4-b]pyridin-5-one] here?
Its EC50 is 202 nM.

`CC(=O)N1CCc2ccc(OC3CCN(c4nc5c(cc4C)C(=O)NC5)CC3)cc2C1` [Example 295, 2-(4-((2-acetyl-1,2,3,4-tetrahydro-isoquinolin-7-yl)oxy)piperidin-1-yl)-3-methyl-6,7-dihydro-5H-pyrrolo[3,4-b] pyridin-5-one] was tested. Which EC50 did it give?
Its EC50 is 137 nM.

For `COc1ccc(OC2CCN(c3nc4c(cc3C)C(=O)N(Cc3ccncc3)C4=O)CC2)cn1` [Example 296, 2-(4-((6-Methoxypyridin-3-yl)oxy)piperidin-1-yl)-3-methyl-6-(pyridin-4-ylmethyl)-5H-pyrrolo[3,4-b]pyridine-5,7(6H)-dione], which EC50 is on record?
The EC50 was 83 nM.

For `COc1ccc(OC2CCN(c3nc4c(cc3C)C(=O)NC4=O)CC2)cn1` [Example 297, 2-(4-((6-Methoxypyridin-3-yl)oxy)piperidin-1-yl)-3-methyl-5H-pyrrolo[3,4-b]pyridine-5,7(6H)-dione], which EC50 is on record?
Its EC50 is 22 nM.

How did the EC50 turn out when `COc1ccc(OC2CCN(c3nc4c(cc3C)C(=O)NC4O)CC2)cn1` (stereo not drawn) [Example 298, 7-Hydroxy-2-(4-((6-methoxypyridin-3-yl)oxy)piperidin-1-yl)-3-methyl-6,7-dihydro-5H-pyrrolo[3,4-b]pyridin-5-one] was run?
Its EC50 is 24 nM.

How did the EC50 turn out when `COc1ccc(OC2CCN(c3nc4c(cc3C)C(=O)N(C(=O)OC(C)(C)C)C4)CC2)cn1` [Example 299, tert-Butyl 2-(4-((6-methoxypyridin-3-yl)oxy)piperidin-1-yl)-3-methyl-5-oxo-5,7-dihydro-6H-pyrrolo[3,4-b]pyridine-6-carboxylate] was run?
The EC50 was 265 nM.

For `COc1ccc(OC2CCN(c3nc4c(cc3C)C(=O)NC43CC3)CC2)cn1` [Example 300], which EC50 is on record?
The EC50 was 286 nM.

With `COc1ccc(OC2CCN(c3nc4c(cc3CO)C(=O)NC4)CC2)cn1` [Example 301, 3-(Hydroxymethyl)-2-(4-((6-methoxypyridin-3-yl)oxy)piperidin-1-yl)-6,7-dihydro-5H-pyrrolo[3,4-b]pyridin-5-one] as the molecule, how does the EC50 read?
Its EC50 is 1140 nM.

Which EC50 does the source give for `COc1ccc(OC2CCN(c3nc4c(c(CO)c3C)C(=O)NC4)CC2)cn1` [Example 302, 4-(hydroxymethyl)-2-(4-((6-methoxypyridin-3-yl)oxy)piperidin-1-yl)-3-methyl-6,7-dihydro-5H-pyrrolo[3,4-b]pyridin-5-one] here?
The EC50 was 819 nM.

With `Cc1c(N2CCC(Oc3ccc4c(c3)COC4)CC2)nc2c(c1CO)C(=O)NC2` [Example 303, 2-(4-((1,3-dihydro-2-benzofuran-5-yl)oxy)piperidin-1-yl)-4-(hydroxymethyl)-3-methyl-6,7-dihydro-5H-pyrrolo[3,4-b]pyridin-5-one] as the molecule, how does the EC50 read?
Its EC50 is 302 nM.

How did the EC50 turn out when `COc1ccc(OC2CCN(c3nc4c(cc3CF)C(=O)NC4)CC2)cn1` [Example 304, 3-(Fluoromethyl)-2-(4-((6-methoxypyridin-3-yl)oxy)piperidin-1-yl)-6,7-dihydro-5H-pyrrolo[3,4-b]pyridin-5-one] was run?
The EC50 was 1120 nM.

With `COc1ccc(OC2CCN(c3nc4c(c(CF)c3C)C(=O)NC4)CC2)cn1` [Example 305, 4-(fluoromethyl)-2-(4-((6-methoxypyridin-3-yl)oxy)piperidin-1-yl)-3-methyl-6,7-dihydro-5H-pyrrolo[3,4-b]pyridin-5-one] as the molecule, how does the EC50 read?
Its EC50 is 241 nM.

Which EC50 does the source give for `COc1ccc(OC2CCN(c3nc4c(cc3C=O)C(=O)NC4)CC2)cn1` [Example 306, 2-(4-((6-Methoxypyridin-3-yl)oxy)piperidin-1-yl)-5-oxo-6,7-dihydro-5H-pyrrolo[3,4-b]pyridine-3-carbaldehyde] here?
The EC50 was 320 nM.

Which EC50 does the source give for `COc1ccc(OC2CCN(c3nc4c(cc3C(F)F)C(=O)NC4)CC2)cn1` [Example 307, 3-(Difluoromethyl)-2-(4-((6-methoxypyridin-3-yl)oxy)piperidin-1-yl)-6,7-dihydro-5H-pyrrolo[3,4-b]pyridin-5-one] here?
Its EC50 is 1310 nM.

`COc1ccc(OC2CCN(c3nc4c(c(C(F)F)c3C)C(=O)NC4)CC2)cn1` [Example 307A, 4-(difluoromethyl)-2-(4-((6-methoxypyridin-3-yl)oxy)piperidin-1-yl)-3-methyl-6,7-dihydro-5H-pyrrolo[3,4-b]pyridin-5-one] was tested. Which EC50 did it give?
Its EC50 is 279 nM.
